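These data come from cells grown in 96-well plates and exposed to compound for 48 hours at five concentrations. TGI denotes the concentration required for complete inhibition of growth.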
Assays:
Experiment in all cases: NCI anticancer screen, dose series, 48 h
[1] = system: SF-295 CNS
[2] = system: EKVX NSCLC
[3] = system: NCI-H226 lung
[4] = system: HCT-15 colon
[5] = system: MOLT-4 leukemia
[6] = system: OVCAR-5 ovarian
[7] = system: NCI-H522 lung
[8] = system: SK-OV-3 ovarian
[9] = system: MALME-3M melanoma
[10] = system: SNB-75 CNS
[11] = system: CAKI-1 renal
[12] = system: SK-MEL-5 melanoma
[13] = system: HOP-62 NSCLC

| SMILES | TGI [1] | TGI [2] | TGI [3] | TGI [4] | TGI [5] | TGI [6] | TGI [7] | TGI [8] | TGI [9] | TGI [10] | TGI [11] | TGI [12] | TGI [13] |
| --- | --- | --- | --- | --- | --- | --- | --- | --- | --- | --- | --- | --- | --- |
| Cc1cn(C2CC(ON3C(=O)c4ccccc4C3=O)C(CO)O2)c(=O)[nH]c1=O (stereo unspecified) | > 10 µM | > 10 µM | > 10 µM | > 10 µM | > 10 µM | > 10 µM | > 10 µM | > 10 µM | > 10 µM | > 10 µM | – | – | – |
| CCN1c2nc3ccccc3nc2N(CC)c2nc3ccccc3nc21 | > 100 µM | > 100 µM | > 100 µM | > 100 µM | > 100 µM | > 100 µM | > 100 µM | > 100 µM | > 100 µM | – | > 100 µM | > 100 µM | – |
| C=CCn1c(=O)n(CC=C)c(=O)n(CC=C)c1=O | > 100 µM | > 100 µM | – | > 100 µM | > 100 µM | > 100 µM | > 100 µM | > 100 µM | > 100 µM | – | – | > 100 µM | > 100 µM |
| COC1=C(Br)[C@H](O)[C@@]2(C=C1Br)CC(C(=O)NCCCCCN=C(N)N)=NO2 | > 10 µM | – | > 10 µM | > 10 µM | > 10 µM | > 10 µM | > 10 µM | > 10 µM | > 10 µM | > 10 µM | – | > 10 µM | > 10 µM |
| Cn1ccc(C(=O)NCCOCCNC(=O)c2ccn(C)c(=O)c2O)c(O)c1=O | – | – | > 100 µM | > 100 µM | – | – | > 100 µM | – | > 100 µM | – | > 100 µM | > 100 µM | – |
| Cc1cc(C)cc(C(=N)c2ccccc2Cc2cccc3ccccc23)c1 | 25.5 µM | 46.4 µM | 29.3 µM | 32.2 µM | 30.8 µM | 53.5 µM | 24.4 µM | 41.5 µM | 33.4 µM | – | 72.9 µM | 31.9 µM | 32.2 µM |
| Cc1cn(C2CC(N(O)Cc3ccccc3)C(CO)O2)c(=O)[nH]c1=O (stereo unspecified) | > 100 µM | > 100 µM | > 100 µM | > 100 µM | > 100 µM | > 100 µM | – | > 100 µM | – | > 100 µM | – | > 100 µM | > 100 µM |
| CC(C)CC1[C@@H](OCc2ccccc2)COS(=O)N1Cc1ccccc1 (stereo partly specified) | > 100 µM | > 100 µM | > 100 µM | > 100 µM | > 100 µM | > 100 µM | – | > 100 µM | 72.9 µM | 70.7 µM | – | > 100 µM | > 100 µM |

— PubChem BioAssay (NCI)
